Data: patent publication US10202361B2, “Pyridazinones as herbicides” (E I DU PONT DE NEMOURS AND COMPANY, priority 2014, dated 2019)

Assays:
Assay in all cases: Test D pre-/postemergence controlled growth environment herbicide test
Format in all cases: in vivo
Conditions in all cases: scale 0 to 100
[1] = test system: Russian thistle (Salsola kali)
How it was run: (§1)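 Visual injury scored 0–100 (100 = complete control) against untreated controls, 14–21 d after treatment in a controlled growth environment. Compounds, formulated in non-phytotoxic solvent with surfactant, were applied preemergence to silt loam soil or postemergence to 1- to 4-leaf plants (2–18 cm) in peat-based medium.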

[2] = test system: bluegrass (annual bluegrass, Poa annua)
How it was run: as §1

[3] = test system: field poppy (Papaver rhoeas)
How it was run: as §1

[4] = test system: galium (catchweed bedstraw, Galium aparine)
How it was run: as §1

kochia (Kochia scoparia) = test system: kochia (Kochia scoparia)
How it was run: as §1

[5] = test system: mustard, wild (wild mustard, Sinapis arvensis)
How it was run: as §1

[6] = test system: oat, wild (wild oat, Avena fatua)
How it was run: as §1

[7] = test system: oilseed rape (Brassica napus)
How it was run: as §1

[8] = test system: pigweed (Amaranthus retroflexus)
How it was run: as §1

[9] = test system: ryegrass, Italian (Italian ryegrass, Lolium multiflorum)
How it was run: as §1

[10] = test system: wheat, spring (spring wheat, Triticum aestivum)
How it was run: as §1

Measured: Plant response rating

COc1cc(=O)n(-c2ccc(F)cc2)nc1Cc1ccnc(C(F)(F)F)c1 [Compound 17, 2-(4-fluorophenyl)-5-methoxy-6-[[2-(trifluoromethyl)-4-pyridinyl]methyl]-3 (2H)-pyridazinone]
70: [4]; Postemergence, 62 g ai/ha | kochia (Kochia scoparia); Postemergence, 125 g ai/ha | [8]; Postemergence, 250 g ai/ha | [10]; Preemergence, 250 g ai/ha
75: [3]; Postemergence, 62 g ai/ha | [3]; Postemergence, 125 g ai/ha | [6]; Preemergence, 250 g ai/ha | [7]; Postemergence, 125 g ai/ha
85: [2]; Preemergence, 500 g ai/ha | [6]; Preemergence, 500 g ai/ha | [7]; Postemergence, 250 g ai/ha
80: kochia (Kochia scoparia); Postemergence, 250 g ai/ha | [5]; Postemergence, 125 g ai/ha | [9]; Preemergence, 500 g ai/ha
25: [2]; Preemergence, 125 g ai/ha | kochia (Kochia scoparia); Postemergence, 31 g ai/ha | [7]; Preemergence, 31 g ai/ha | [7]; Preemergence, 62 g ai/ha
55: [7]; Postemergence, 62 g ai/ha
95: [8]; Postemergence, 500 g ai/ha
0: [1]; Preemergence, 31 g ai/ha | [2]; Preemergence, 31 g ai/ha | [2]; Preemergence, 62 g ai/ha | [6]; Preemergence, 31 g ai/ha | [6]; Preemergence, 62 g ai/ha | [9]; Preemergence, 31 g ai/ha | [9]; Preemergence, 62 g ai/ha | [9]; Preemergence, 125 g ai/ha | [10]; Preemergence, 31 g ai/ha
50: [3]; Postemergence, 31 g ai/ha | [4]; Postemergence, 31 g ai/ha | [5]; Postemergence, 62 g ai/ha | [6]; Postemergence, 500 g ai/ha | [6]; Preemergence, 125 g ai/ha | [7]; Postemergence, 31 g ai/ha | [9]; Preemergence, 250 g ai/ha
100: [1]; Postemergence, 125 g ai/ha | [1]; Postemergence, 250 g ai/ha | [1]; Postemergence, 500 g ai/ha | [1]; Preemergence, 62 g ai/ha | [1]; Preemergence, 125 g ai/ha | [1]; Preemergence, 250 g ai/ha | [1]; Preemergence, 500 g ai/ha | [3]; Postemergence, 500 g ai/ha | [3]; Preemergence, 31 g ai/ha | [3]; Preemergence, 62 g ai/ha | [3]; Preemergence, 125 g ai/ha | [3]; Preemergence, 250 g ai/ha | [3]; Preemergence, 500 g ai/ha | [4]; Postemergence, 500 g ai/ha | [4]; Preemergence, 250 g ai/ha | [4]; Preemergence, 500 g ai/ha | kochia (Kochia scoparia); Preemergence, 31 g ai/ha | kochia (Kochia scoparia); Preemergence, 62 g ai/ha | kochia (Kochia scoparia); Preemergence, 125 g ai/ha | kochia (Kochia scoparia); Preemergence, 250 g ai/ha | kochia (Kochia scoparia); Preemergence, 500 g ai/ha | [5]; Postemergence, 250 g ai/ha | [5]; Postemergence, 500 g ai/ha | [5]; Preemergence, 31 g ai/ha | [5]; Preemergence, 62 g ai/ha | [5]; Preemergence, 125 g ai/ha | [5]; Preemergence, 250 g ai/ha | [5]; Preemergence, 500 g ai/ha | [7]; Postemergence, 500 g ai/ha | [8]; Preemergence, 62 g ai/ha | [8]; Preemergence, 125 g ai/ha | [8]; Preemergence, 250 g ai/ha | [8]; Preemergence, 500 g ai/ha
98: [4]; Postemergence, 250 g ai/ha
60: [2]; Preemergence, 250 g ai/ha | kochia (Kochia scoparia); Postemergence, 62 g ai/ha
20: [2]; Postemergence, 500 g ai/ha | [4]; Preemergence, 125 g ai/ha | [5]; Postemergence, 31 g ai/ha | [6]; Postemergence, 250 g ai/ha | [8]; Postemergence, 31 g ai/ha | [10]; Postemergence, 125 g ai/ha | [10]; Postemergence, 250 g ai/ha
30: [1]; Postemergence, 31 g ai/ha | [1]; Postemergence, 62 g ai/ha | [8]; Postemergence, 62 g ai/ha | [8]; Postemergence, 125 g ai/ha | [10]; Postemergence, 500 g ai/ha | [10]; Preemergence, 125 g ai/ha
15: [9]; Postemergence, 250 g ai/ha | [10]; Postemergence, 62 g ai/ha | [10]; Preemergence, 62 g ai/ha
40: [7]; Preemergence, 125 g ai/ha
90: [3]; Postemergence, 250 g ai/ha | [4]; Postemergence, 125 g ai/ha | kochia (Kochia scoparia); Postemergence, 500 g ai/ha | [7]; Preemergence, 250 g ai/ha | [7]; Preemergence, 500 g ai/ha | [10]; Preemergence, 500 g ai/ha
35: [9]; Postemergence, 500 g ai/ha
5: [2]; Postemergence, 31 g ai/ha | [2]; Postemergence, 62 g ai/ha | [2]; Postemergence, 125 g ai/ha | [4]; Preemergence, 31 g ai/ha | [4]; Preemergence, 62 g ai/ha
10: [2]; Postemergence, 250 g ai/ha | [6]; Postemergence, 31 g ai/ha | [6]; Postemergence, 62 g ai/ha | [6]; Postemergence, 125 g ai/ha | [8]; Preemergence, 31 g ai/ha | [9]; Postemergence, 31 g ai/ha | [9]; Postemergence, 62 g ai/ha | [9]; Postemergence, 125 g ai/ha | [10]; Postemergence, 31 g ai/ha
